Assay [1] relates to Nucleic Acid. Description: Inhibition of cellular protein-DNA complex formation at 10 uM. The assay is classed as functional. Conditions: Homo sapiens.
In assay [2] the target is DNA topoisomerase II (Homo sapiens) (UniProt P11388+Q02880). Description: Inhibitory activity against human DNA topoisomerase II. The format is protein assay.
The nature of assay [3]: Concentration for 50% reduction in cell number after 3-day incubation. The format is functional. Particulars: Homo sapiens, 72 h; read-out: ID50 (the source's name).

Take `COc1cc([C@@H]2c3cc4c(cc3[C@@H](Oc3ccc(F)cc3)[C@H]3COC(=O)[C@H]23)OCO4)cc(OC)c1O`: the Formation in assay [1] is 57%. The compound also returned an ID50 in assay [2] above 100 µM. Moreover, the IC50 in assay [3] stood at 0.5 µM.

In the case of `CCOC(=O)c1ccccc1N[C@@H]1c2cc3c(cc2[C@@H](c2cc(OC)c(O)c(OC)c2)[C@H]2C(=O)OC[C@@H]21)OCO3`, the Formation in assay [1] amounted to 4%. This compound registered an ID50 in assay [2] above 100 µM. For the same compound, the IC50 in assay [3] amounted to 1 µM.

Compound `COc1cc([C@@H]2c3cc4c(cc3[C@@H](O[C@@H]3O[C@@H]5CO[C@@H](C)O[C@H]5[C@H](O)[C@H]3O)[C@H]3COC(=O)[C@H]23)OCO4)cc(OC)c1O` [ETOPOSIDE] had a Formation in assay [1] of 100%. The IC50 in assay [3] came out at 0.2 µM.

Consider `COc1cc([C@@H]2c3cc4c(cc3[C@@H](Nc3cccnc3)[C@H]3COC(=O)[C@H]23)OCO4)cc(OC)c1O`, for which, in assay [1], the Formation was found to be 148%. For the same compound, in assay [2], the ID50 amounted to 50 µM. For the same compound, the IC50 in assay [3] came to 0.24 µM.

On to `COc1cc([C@@H]2c3cc4c(cc3[C@@H](Nc3ccc(N)cc3)[C@H]3COC(=O)[C@H]23)OCO4)cc(OC)c1O`, for which the Formation in assay [1] was found to be 330%. Moreover, the ID50 in assay [2] amounted to 5 µM. Besides, the IC50 in assay [3] was 0.8 µM.

`COc1cc([C@@H]2c3cc4c(cc3[C@@H](Oc3ccc(O)cc3)[C@H]3COC(=O)[C@H]23)OCO4)cc(OC)c1O` showed a Formation in assay [1] of 34%. Also, in assay [2], the ID50 was 50 µM. In addition, the IC50 in assay [3] was below 1 µM.

`COc1cc([C@@H]2c3cc4c(cc3[C@@H](Nc3ccc(C#N)cc3)[C@H]3COC(=O)[C@H]23)OCO4)cc(OC)c1O`: the Formation in assay [1] was determined as 211%. Also, in assay [2], the ID50 was 10 µM. Also, the IC50 in assay [3] worked out at 0.64 µM.

On to `COc1cc([C@@H]2c3cc4c(cc3[C@@H](Nc3ccccn3)[C@H]3COC(=O)[C@H]23)OCO4)cc(OC)c1O`, for which the Formation in assay [1] came to 97%. In assay [2], the ID50 was found to be 50 µM. Further, the IC50 in assay [3] came out at 0.71 µM.

`COc1cc([C@@H]2c3cc4c(cc3[C@@H](Nc3ccc(F)cc3)[C@H]3COC(=O)[C@H]23)OCO4)cc(OC)c1O`: in assay [1], the Formation was 213%. In addition, the ID50 in assay [2] worked out at 5 µM. Further, the IC50 in assay [3] amounted to 0.24 µM.

Regarding `COc1cc([C@@H]2c3cc4c(cc3[C@@H](Nc3cc(N)ccc3O)[C@H]3COC(=O)[C@H]23)OCO4)cc(OC)c1O`, the Formation in assay [1] came out at 11%. In assay [2], this compound gave an ID50 above 100 µM. Besides, the IC50 in assay [3] stood at 3.3 µM.

`COc1cc([C@@H]2c3cc4c(cc3[C@@H](NCCO)[C@H]3COC(=O)[C@H]23)OCO4)cc(OC)c1O` came in with a Formation in assay [1] of 121%. The IC50 in assay [3] worked out at 1.6 µM.

`COc1cc([C@@H]2c3cc4c(cc3[C@@H](Nc3cccc(CO)c3)[C@H]3COC(=O)[C@H]23)OCO4)cc(OC)c1O` came in with a Formation in assay [1] of 235%. In assay [2], this compound gave an ID50 of 25 µM. Further, the IC50 in assay [3] is below 1 µM.

On to `COC(=O)c1ccc(N[C@@H]2c3cc4c(cc3[C@@H](c3cc(OC)c(O)c(OC)c3)[C@H]3C(=O)OC[C@@H]32)OCO4)cc1O`, for which the Formation in assay [1] is 129%. The ID50 in assay [2] was determined as 50 µM. Moreover, the IC50 in assay [3] was found to be 5.8 µM.

`COc1ccc(N[C@@H]2c3cc4c(cc3[C@@H](c3cc(OC)c(O)c(OC)c3)[C@H]3C(=O)OC[C@@H]32)OCO4)cc1OC` returned a Formation in assay [1] of 180%. For the same compound, in assay [2], the ID50 is 25 µM. For the same compound, the IC50 in assay [3] is below 1 µM.

As for `COc1cc([C@@H]2c3cc4c(cc3[C@@H](Nc3cccc(C#N)c3)[C@H]3COC(=O)[C@H]23)OCO4)cc(OC)c1O`, the Formation in assay [1] was determined as 137%. In addition, in assay [2], the ID50 turned out to be 25 µM. Further, the IC50 in assay [3] stood at 0.69 µM.

For `COc1cc([C@@H]2c3cc4c(cc3[C@@H](Nc3cccc(O)c3)[C@H]3COC(=O)[C@H]23)OCO4)cc(OC)c1O`, in assay [1], the Formation worked out at 290%. Also, the ID50 in assay [2] came out at 25 µM. Moreover, the IC50 in assay [3] amounted to 0.45 µM.

As to `COc1cc([C@@H]2c3cc4c(cc3[C@@H](Nc3ccc([N+](=O)[O-])cc3)[C@H]3COC(=O)[C@H]23)OCO4)cc(OC)c1O`, the Formation in assay [1] worked out at 323%. For the same compound, in assay [2], the ID50 turned out to be 10 µM. Further, in assay [3], the IC50 came to 0.49 µM.

The compound `COc1cc([C@@H]2c3cc4c(cc3[C@@H](Nc3ccc(Oc5ccccc5)cc3)[C@H]3COC(=O)[C@H]23)OCO4)cc(OC)c1O` came in with a Formation in assay [1] of 97%. In addition, the ID50 in assay [2] amounted to 25 µM. Besides, the IC50 in assay [3] turned out to be 1 µM.

Consider `COc1cc([C@@H]2c3cc4c(cc3[C@@H](Nc3ccc(N5CCOCC5)cc3)[C@H]3COC(=O)[C@H]23)OCO4)cc(OC)c1O`, for which the Formation in assay [1] came to 140%. This compound gave an ID50 in assay [2] of 10 µM. In assay [3], the IC50 worked out at 0.66 µM.

Turning to `COc1cc([C@@H]2c3cc4c(cc3[C@@H](Nc3cnc5ccccc5c3)[C@H]3COC(=O)[C@H]23)OCO4)cc(OC)c1O`, the Formation in assay [1] came out at 123%. In addition, the ID50 in assay [2] is 50 µM. Besides, in assay [3], the IC50 was below 1 µM.

On to `COc1cc([C@@H]2c3cc4c(cc3[C@@H](Nc3cc(OC)c(OC)c(OC)c3)[C@H]3COC(=O)[C@H]23)OCO4)cc(OC)c1O`, for which, in assay [1], the Formation was 47%. The ID50 in assay [2] was above 100 µM. In assay [3], the IC50 amounted to 0.63 µM.

In assay [1], `COc1cc([C@@H]2c3cc4c(cc3[C@@H](Nc3cc(C(F)(F)F)cc(C(F)(F)F)c3)[C@H]3COC(=O)[C@H]23)OCO4)cc(OC)c1O` came in with a Formation of 21%. In assay [2], the ID50 is above 100 µM. The IC50 in assay [3] was determined as 3.4 µM.

The compound `COC(=O)c1cc(N[C@@H]2c3cc4c(cc3[C@@H](c3cc(OC)c(O)c(OC)c3)[C@H]3C(=O)OC[C@@H]32)OCO4)ccc1O` displayed a Formation in assay [1] of 83%. This compound also yielded an ID50 in assay [2] of 50 µM. Besides, the IC50 in assay [3] was 1 µM.

The compound `COc1cc([C@@H]2c3cc4c(cc3[C@@H](Nc3cccc(N)c3)[C@H]3COC(=O)[C@H]23)OCO4)cc(OC)c1O` showed a Formation in assay [1] of 140%. This compound displayed an ID50 in assay [2] of 25 µM. Further, the IC50 in assay [3] was found to be 4 µM.

For `COc1cc([C@@H]2c3cc4c(cc3[C@@H](Nc3cc([N+](=O)[O-])ccc3O)[C@H]3COC(=O)[C@H]23)OCO4)cc(OC)c1O`, the Formation in assay [1] is 15%. Besides, in assay [2], the ID50 was above 100 µM. The IC50 in assay [3] was 1 µM.

`COc1cc([C@@H]2c3cc4c(cc3[C@@H](Nc3cccc([N+](=O)[O-])c3)[C@H]3COC(=O)[C@H]23)OCO4)cc(OC)c1O` returned a Formation in assay [1] of 230%. In assay [2], this compound had an ID50 of 50 µM. For the same compound, the IC50 in assay [3] was 1 µM.

As for `COC(=O)c1cc(N[C@@H]2c3cc4c(cc3[C@@H](c3cc(OC)c(O)c(OC)c3)[C@H]3C(=O)OC[C@@H]32)OCO4)cc(C(=O)OC)c1`, the Formation in assay [1] was found to be 50%. Further, the ID50 in assay [2] was 25 µM. The IC50 in assay [3] is below 1 µM.

In assay [1], `COc1cc([C@@H]2c3cc4c(cc3[C@@H](Nc3ccc5c(c3)OCO5)[C@H]3COC(=O)[C@H]23)OCO4)cc(OC)c1O` had a Formation of 164%. In assay [2], the ID50 is 50 µM. Also, the IC50 in assay [3] was below 1 µM.

In turn, `COc1cc([C@@H]2c3cc4c(cc3[C@@H](Nc3ccc5c(c3)OCCO5)[C@H]3COC(=O)[C@H]23)OCO4)cc(OC)c1O` had a Formation in assay [1] of 279%. Further, the ID50 in assay [2] worked out at 10 µM. The IC50 in assay [3] was determined as 0.68 µM.

With `COc1cc([C@@H]2c3cc4c(cc3[C@@H](Nc3cccc(C(C)=O)c3)[C@H]3COC(=O)[C@H]23)OCO4)cc(OC)c1O`, the Formation in assay [1] is 150%. This compound also yielded an ID50 in assay [2] of 50 µM. The IC50 in assay [3] is 1.7 µM.

`COc1cc([C@@H]2c3cc4c(cc3[C@@H](Sc3ccc(O)cc3)[C@H]3COC(=O)[C@H]23)OCO4)cc(OC)c1O` returned a Formation in assay [1] of 10%. Moreover, the ID50 in assay [2] is above 100 µM. The IC50 in assay [3] was below 1 µM.

`COC(=O)c1cccc(N[C@@H]2c3cc4c(cc3[C@@H](c3cc(OC)c(O)c(OC)c3)[C@H]3C(=O)OC[C@@H]32)OCO4)c1` returned a Formation in assay [1] of 249%. In assay [2], this compound came in with an ID50 of 50 µM. The IC50 in assay [3] is 2.7 µM.

For `COc1cc([C@@H]2c3cc4c(cc3[C@@H](Nc3ccccc3)[C@H]3COC(=O)[C@H]23)OCO4)cc(OC)c1O`, the Formation in assay [1] came to 243%. This compound registered an ID50 in assay [2] of 25 µM. For the same compound, the IC50 in assay [3] amounted to 0.71 µM.

Regarding `COc1cccc(N[C@@H]2c3cc4c(cc3[C@@H](c3cc(OC)c(O)c(OC)c3)[C@H]3C(=O)OC[C@@H]32)OCO4)c1`, the Formation in assay [1] stood at 104%. In assay [2], this compound yielded an ID50 of 25 µM. Moreover, the IC50 in assay [3] came to 3.8 µM.

As for `CCOC(=O)c1ccc(N[C@@H]2c3cc4c(cc3[C@@H](c3cc(OC)c(O)c(OC)c3)[C@H]3C(=O)OC[C@@H]32)OCO4)cc1`, the Formation in assay [1] was found to be 207%. In assay [2], this compound came in with an ID50 of 5 µM. Further, in assay [3], the IC50 is 0.84 µM.

(Values after ChEMBL document CHEMBL1125139, “Antitumor agents. 113. New 4 beta-arylamino derivatives of 4'-O-demethylepipodophyllotoxin and related compounds as potent inhibitors of human DNA topoisomerase II” (1990).)
